Measurements taken from patent US5589510A, “Method for inhibiting retroviral infection by administering a naphthalenesulfonic acid compound” (priority 1995, dated 1996).

Assays:
[1] = test system: TA98, TA1535, TA1537, TA1538, TA100 and W2P2uvr; assay: Ames Test (in the presence of S9); format: cell-based, Salmonella typhimurium
From the text: Six Salmonella typhimuriumstrai strains, TA98, TA1535, TA1537, TA1538, TA100 and W2P2uvr were used in this experiment.

HIV-1 RF = assay: Antiviral assay, Experimental Protocol I (compound added after infection); format: cell-based; conditions: Human immunodeficiency virus 1, 240 h, 10% FCS, p24 ELISA, read-out: % Inhibition (after day 10)
[2] = target: T1, recombinant reverse transcriptase (RT) (Human immunodeficiency virus type 1 group M subtype B, UniProt P04585); assay: Reverse transcriptase inhibition assay; format: biochemical, HIV-1; conditions: at 0.5 μM
T1 construct: purchased Worthington Biochemical Corporation
Experimental: Inhibition of recombinant reverse transcriptase (RT) was performed by using commercially available Boehringer Mannheim RT assay kit (Cat. No. 1468 120) based on incorporation of digoxigenin labeled dUTP into DNA. Recombinant enzyme from HIV-1 was purchased from Worthington Biochemical Corporation. The level of anti-RT activity in the sample was determined by measurement of absorbance using an ELISA reader at 405 nm.

HIV-1 patient isolate IH = assay: Inhibition of HIV-1 patient isolate IH in CD4^+ cells; format: cell-based; conditions: Human immunodeficiency virus 1, 288 h, 10% FCS, read-out: % Inhibition (after day 12)
Experimental: The inhibitory effects of additional naphthalenesulfonic acid compounds were tested as follows: Experimental Details:
PBMCs were activated for 48 hours in conditioned medium containing PHA at a concentration of 4 μg/ml. Thereafter 10^6 cells were plated in each of the 24 well plates containing 10% FCS or 50% FCS. The test compound, previously dissolved in a glucose solution (1 mg/ml), was then added to each of the wells to achieve the appropriate concentration. The plate was then incubated overnight (about 15 hours) after which 50 μl of cell-free HIV-1 patient isolate was added to each well. The plates were incubated for further 6 to 8 hours after which all free floating solution of virus was washed off. Washing was performed four times.
After removal of the virus, all cultures were resuspended in conditioned medium containing 10% FCS.
For control experiments virus growth was monitored in either 10% FCS or 50% FCS throughout the observation period (15 days).

LD50, intravenous, mice = format: in vivo; conditions: female mice, mortalities within 1 week; for LD50 at 168 h: mouse, in vivo
Experimental: The test material was administered intravenously to 5 female mice in five increasing doses. Mortalities were recorded within 1 week, and the LD50 was determined with the aid of statistical calculations.

HIV rgp120 / CD4 cells = conditions: literature (Balzarini et al.); cited from earlier work
standard Ames Test = conditions: literature (K-T. Chung et al); cited from earlier work
syncytium formation = conditions: literature (Mohan et al.; Tan et al.; Baba et al.); cited from earlier work
retroviruses = conditions: literature (Ito et al.); cited from earlier work

## COc1cc(N=Nc2c(S(=O)(=O)O)cc3cc(S(=O)(=O)O)cc(NC(=O)c4cccc5ccccc45)c3c2O)c(OC)cc1N=Nc1c(S(=O)(=O)O)cc2cc(S(=O)(=O)O)cc(NC(=O)c3ccc(Cl)cc3Cl)c2c1O [Compound 1]
[1]
  Ames Test result: Negative
HIV-1 RF; 0.6 μg/ml
  inhibition at 0.6 µg/mL: 98%
HIV-1 RF; 1.25 μg/ml
  inhibition at 1.25 µg/mL: 100%
HIV-1 RF; 2.5 μg/ml
  inhibition at 2.5 µg/mL: 100%
HIV-1 RF; 5 μg/ml
  inhibition at 5 µg/mL: 100%
[2]
  inhibition at 0.5 µM: 70%
HIV-1 patient isolate IH; 10 μg/ml
  inhibition at 10 µg/mL: 50%
HIV-1 patient isolate IH; 20 μg/ml
  inhibition at 20 µg/mL: 100%
LD50, intravenous, mice
  LD50 at 168 h: 150 mg/kg

## Cc1cc(-c2ccc(/N=N/c3ccc4c(S(=O)(=O)O)cc(S(=O)(=O)O)c(N)c4c3O)c(C)c2)ccc1/N=N/c1ccc2c(S(=O)(=O)O)cc(S(=O)(=O)O)c(N)c2c1O [Evans Blue, reference compound]
HIV rgp120 / CD4 cells
  inhibition of interaction of HIV rgp120 with CD4 cells: inhibitor of the interaction of HIV rgp120 with CD4 cells
[1]
  Ames Test result: Positive
[1]; the higher the value, the higher the mutagenicity
  Ames Test, specific mutagenic activity: 10 colony no/μg
Standard Ames Test
  mutagenic effects in Ames Test: strong mutagenic effects
[2]
  inhibition at 0.5 µM: 48%
LD50, intravenous, mice
  LD50 at 168 h: 100 mg/kg

## CC1=C/C(=C(\c2ccc(N)c(S(=O)(=O)[O-])c2)c2ccc(N)c(S(=O)(=O)O)c2)C=C(S(=O)(=O)[O-])C1=N.[Na+].[Na+] [Fuchsin Acid, reference compound]
Syncytium formation
  inhibition of syncytium formation: inhibitors of syncytium formation
LD50, intravenous, mice; 10080 min
  LD50: 100 mg/kg

## dextran sulfate
retroviruses
  anti-retroviral activity: known anti-retroviral compounds
